Test results as given in patent US7214686B2, “Pharmaceutical compositions and methods for effecting dopamine release” (priority 1997, dated 2007).
pEC50, pKi: −log10 of the molar value. Where two headings read alike, the source gives them in different places.

Legend:
[1] = tested on: striatal synaptosomes (dopamine release); test: cells; assay type: cell-based, rat; details: for pEC50: read-out: Dopamine Release EC50
[2] = biological target: T1, human muscle nAChR subtype (TE671/RD cells) (Homo sapiens, UniProt P02708+P07510+Q07001); test: cell-based; assay type: cell-based; details: for Muscle Effect Ecmax: maximal activation as a percentage of that induced by L-nicotine
T1 construct: These cells express receptors that have pharmacological; endogenous in cells; host or cells: TE671/RD (human embryonal rhabdomyosarcoma)
T1 sequence (P02708 21-457): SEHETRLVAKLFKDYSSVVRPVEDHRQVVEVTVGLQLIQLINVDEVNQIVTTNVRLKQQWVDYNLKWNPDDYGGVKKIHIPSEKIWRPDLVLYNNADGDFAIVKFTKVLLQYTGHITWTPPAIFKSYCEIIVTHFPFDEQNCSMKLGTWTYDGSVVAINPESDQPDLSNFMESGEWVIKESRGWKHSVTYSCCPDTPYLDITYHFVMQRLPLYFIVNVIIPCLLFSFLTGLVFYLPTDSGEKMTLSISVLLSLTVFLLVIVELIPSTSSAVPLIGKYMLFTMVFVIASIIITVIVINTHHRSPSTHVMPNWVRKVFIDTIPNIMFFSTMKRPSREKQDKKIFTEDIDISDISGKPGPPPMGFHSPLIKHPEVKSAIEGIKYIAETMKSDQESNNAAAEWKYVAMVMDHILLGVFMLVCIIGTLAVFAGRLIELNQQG
T1 sequence (P11230 24-501 partner): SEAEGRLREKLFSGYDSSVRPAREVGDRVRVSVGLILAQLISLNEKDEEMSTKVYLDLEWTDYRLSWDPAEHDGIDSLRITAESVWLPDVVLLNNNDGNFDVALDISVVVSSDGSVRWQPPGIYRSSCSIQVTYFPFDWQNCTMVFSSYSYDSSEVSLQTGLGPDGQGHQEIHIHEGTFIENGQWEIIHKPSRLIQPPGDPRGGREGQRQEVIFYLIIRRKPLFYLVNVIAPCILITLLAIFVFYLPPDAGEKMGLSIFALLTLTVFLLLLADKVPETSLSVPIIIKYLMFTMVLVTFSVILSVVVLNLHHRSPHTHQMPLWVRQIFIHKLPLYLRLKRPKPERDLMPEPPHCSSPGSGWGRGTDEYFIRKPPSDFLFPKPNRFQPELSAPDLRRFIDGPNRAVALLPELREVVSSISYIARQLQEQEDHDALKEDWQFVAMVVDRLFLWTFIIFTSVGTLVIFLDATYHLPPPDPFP
T1 sequence (Q07001 22-517): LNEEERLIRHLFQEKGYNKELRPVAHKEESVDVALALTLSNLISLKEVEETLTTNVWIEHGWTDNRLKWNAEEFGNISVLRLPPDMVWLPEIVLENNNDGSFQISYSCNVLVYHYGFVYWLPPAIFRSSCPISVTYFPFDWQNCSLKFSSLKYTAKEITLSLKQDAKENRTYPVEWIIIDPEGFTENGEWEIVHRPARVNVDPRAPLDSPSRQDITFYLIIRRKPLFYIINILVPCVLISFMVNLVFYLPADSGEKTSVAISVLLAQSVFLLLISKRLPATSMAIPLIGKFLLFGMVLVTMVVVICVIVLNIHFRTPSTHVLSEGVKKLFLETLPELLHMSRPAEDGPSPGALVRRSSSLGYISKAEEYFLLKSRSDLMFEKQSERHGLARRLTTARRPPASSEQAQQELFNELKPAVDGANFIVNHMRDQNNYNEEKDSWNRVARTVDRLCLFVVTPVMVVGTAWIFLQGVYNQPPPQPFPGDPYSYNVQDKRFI
T1 sequence (P07510 23-517): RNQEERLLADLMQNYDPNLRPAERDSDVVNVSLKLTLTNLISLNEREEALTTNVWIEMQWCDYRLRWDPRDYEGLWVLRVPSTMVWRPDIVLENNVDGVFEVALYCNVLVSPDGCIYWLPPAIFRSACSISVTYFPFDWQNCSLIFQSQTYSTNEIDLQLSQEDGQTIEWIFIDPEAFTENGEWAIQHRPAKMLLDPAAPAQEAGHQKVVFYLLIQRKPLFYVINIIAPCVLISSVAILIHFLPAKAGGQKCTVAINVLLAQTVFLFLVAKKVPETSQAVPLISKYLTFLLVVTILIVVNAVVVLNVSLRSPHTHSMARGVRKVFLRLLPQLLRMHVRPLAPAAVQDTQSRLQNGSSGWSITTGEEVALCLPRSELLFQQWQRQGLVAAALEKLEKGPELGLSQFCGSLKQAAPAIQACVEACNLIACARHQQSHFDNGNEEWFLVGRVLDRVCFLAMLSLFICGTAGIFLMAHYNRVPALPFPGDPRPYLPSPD
Protocol: (§1) Cells were cultured in Dulbecco's modified Eagle's medium (Gibco/BRL) with 10% horse serum (Gibco/BRL), 5% fetal bovine serum (HyClone, Logan Utah), 1 mM sodium pyruvate, 4 mM L-Glutamine, and 50,000 units penicillin-streptomycin (Irvine Scientific). When cells were 80% confluent, they were plated to 6 well polystyrene plates (Costar). Experiments were conducted when the cells reached 100% confluency.
(§2) On the day of the experiment, growth media was gently removed from the well and growth media containing ^86Rubidium chloride (10^6 μCi/mL) was added to each well. Cells were incubated at 37° C. for a minimum of 3 h. […] Next, cells were exposed to either 100 μM of test compound, 100 μM of L-nicotine (Acros Organics) or buffer alone for 4 min. Following the exposure period, the supernatant containing the released ^86Rb^+ was removed and transferred to scintillation vials. Scintillation fluid was added and released radioactivity was measured by liquid scintillation counting.
Within each assay, each point had 2 replicates, which were averaged. The amount of ^86Rb^+ release was compared to both a positive control (100 μM L-nicotine) and a negative control (buffer alone) to determine the percent release relative to that of L-nicotine.
(§3) When appropriate, dose-response curves of test compound were determined. The maximal activation for individual compounds (Emax) was determined as a percentage of the maximal activation induced by L-nicotine. The compound concentration resulting in half maximal activation (EC50) of specific ion flux was also determined.

[3] = biological target: T2, rat ganglionic nAChR subtype (PC12 cells) (Rattus norvegicus, UniProt P04757+P12392); test: cell-based; assay type: cell-based
T2 construct: These cells express ganglion-like nAChRs; endogenous in cells; host or cells: PC12 (rat pheochromocytoma)
T2 sequence (P04757 26-499): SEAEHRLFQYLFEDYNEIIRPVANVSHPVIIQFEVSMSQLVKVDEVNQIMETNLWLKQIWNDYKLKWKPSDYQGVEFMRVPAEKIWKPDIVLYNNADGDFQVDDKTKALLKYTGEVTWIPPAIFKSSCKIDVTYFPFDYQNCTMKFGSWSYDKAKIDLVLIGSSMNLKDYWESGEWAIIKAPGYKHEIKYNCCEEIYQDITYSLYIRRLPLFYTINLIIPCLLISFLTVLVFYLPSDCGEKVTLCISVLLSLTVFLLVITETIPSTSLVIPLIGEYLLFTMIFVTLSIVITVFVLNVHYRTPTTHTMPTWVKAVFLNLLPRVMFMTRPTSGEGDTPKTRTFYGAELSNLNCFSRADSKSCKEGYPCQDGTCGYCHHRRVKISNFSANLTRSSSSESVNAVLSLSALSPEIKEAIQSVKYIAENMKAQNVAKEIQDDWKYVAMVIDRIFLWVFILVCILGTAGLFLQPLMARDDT
T2 sequence (P12392 21-495): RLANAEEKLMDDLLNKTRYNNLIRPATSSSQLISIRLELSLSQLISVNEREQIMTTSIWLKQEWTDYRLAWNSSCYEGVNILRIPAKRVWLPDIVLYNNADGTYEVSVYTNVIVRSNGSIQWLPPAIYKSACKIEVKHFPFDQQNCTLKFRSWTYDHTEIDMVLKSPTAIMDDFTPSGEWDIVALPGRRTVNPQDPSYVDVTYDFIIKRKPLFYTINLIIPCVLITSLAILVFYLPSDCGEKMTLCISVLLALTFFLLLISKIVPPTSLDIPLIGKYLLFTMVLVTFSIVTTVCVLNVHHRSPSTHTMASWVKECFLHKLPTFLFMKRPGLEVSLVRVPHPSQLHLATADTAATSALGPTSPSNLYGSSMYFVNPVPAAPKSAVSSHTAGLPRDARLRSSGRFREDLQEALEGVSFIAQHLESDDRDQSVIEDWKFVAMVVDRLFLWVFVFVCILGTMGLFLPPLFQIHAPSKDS
Protocol: Activation of rat ganglion nAChRs was established on the pheochromocytoma clonal line PC12, which is a continuous clonal cell line of neural crest origin, derived from a tumor of the rat adrenal medulla.
as §1, with “Nunc” for “polystyrene”, “(Nunclon) and coated with 0.03% poly-L-lysine (Sigma, dissolved in 100 mM boric acid).” for “(Costar).”, “80%” for “100%”
as §2, with “nicotine” for “L-nicotine (Acros Organics)”
Within each assay, each point had 2 replicates, which were averaged. The amount of ^86Rb^+ release was compared to both a positive control (100 μM nicotine) and a negative control (buffer alone) to determine the percent release relative to that of L-nicotine.
as §3

α4β2 nAChR subtype = biological target: T3, α4β2 nAChR subtype (Rattus norvegicus, UniProt P09483+P12390); test: biochemical; details: inhibition of [3H]nicotine binding, rat cerebral cortex membranes
T3 construct: The cerebral cortex was removed and placed in 20 volumes (weight:volume) of ice-old preparative buffer; from tissue; host or cells: rat cerebral cortex membranes
T3 sequence (P09483 31-630): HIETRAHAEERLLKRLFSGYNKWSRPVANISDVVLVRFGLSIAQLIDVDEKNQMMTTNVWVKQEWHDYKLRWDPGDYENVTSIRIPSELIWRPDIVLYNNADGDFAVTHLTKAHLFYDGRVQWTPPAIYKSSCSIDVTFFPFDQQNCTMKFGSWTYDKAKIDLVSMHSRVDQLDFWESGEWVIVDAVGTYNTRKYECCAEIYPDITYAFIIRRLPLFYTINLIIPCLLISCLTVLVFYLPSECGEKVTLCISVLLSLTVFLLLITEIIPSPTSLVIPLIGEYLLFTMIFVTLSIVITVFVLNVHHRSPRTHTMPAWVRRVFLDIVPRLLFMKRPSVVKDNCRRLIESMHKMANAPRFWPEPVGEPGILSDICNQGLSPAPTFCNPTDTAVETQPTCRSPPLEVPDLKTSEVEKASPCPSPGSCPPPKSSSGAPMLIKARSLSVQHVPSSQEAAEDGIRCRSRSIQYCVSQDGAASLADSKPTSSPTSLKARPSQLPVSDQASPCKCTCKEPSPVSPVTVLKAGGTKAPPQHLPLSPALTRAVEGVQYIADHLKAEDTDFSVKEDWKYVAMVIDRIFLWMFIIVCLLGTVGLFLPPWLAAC
T3 sequence (P12390 25-500): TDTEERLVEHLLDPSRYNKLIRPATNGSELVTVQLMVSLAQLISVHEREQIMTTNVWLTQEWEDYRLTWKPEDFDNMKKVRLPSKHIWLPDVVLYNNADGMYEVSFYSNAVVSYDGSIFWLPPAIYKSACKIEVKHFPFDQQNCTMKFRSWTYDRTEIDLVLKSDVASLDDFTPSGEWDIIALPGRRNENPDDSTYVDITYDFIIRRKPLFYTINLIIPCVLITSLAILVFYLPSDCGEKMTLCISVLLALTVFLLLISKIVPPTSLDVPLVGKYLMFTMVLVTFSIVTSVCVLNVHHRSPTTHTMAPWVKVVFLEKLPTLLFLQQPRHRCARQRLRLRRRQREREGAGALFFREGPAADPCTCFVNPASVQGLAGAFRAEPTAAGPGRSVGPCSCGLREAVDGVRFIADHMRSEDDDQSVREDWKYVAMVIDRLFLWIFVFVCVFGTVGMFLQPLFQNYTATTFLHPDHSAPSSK

[4] = maximal activation as a percentage of that induced by L-nicotine
[5] = rat striatal synaptosomes, [3H]dopamine release
[6] = 86Rb+ efflux, read-out: Ganglion Effect EC50

| Structure (SMILES) | Dopamine Release Ecmax [1, 4] | pEC50 [1, 5] | pEC50 ([2]; 86Rb+ efflux, TE671/RD cells, read-out: Muscle Effect EC50) | Muscle Effect Ecmax [2] | pEC50 [3, 6] | Ganglion Effect Ecmax [3, 4] | logP (physchem) | pEC50 ([1]; Rattus norvegicus) | pEC50 [3] | pEC50 [2] | Dopamine Release Ecmax [1] | Ganglion Effect Ecmax [3] | pKi (α4β2 nAChR subtype) | amounts causing muscle effects relative to those required to cause dopamine release ([2]; muscle effects vs dopamine release) | amounts causing effects upon ganglia relative to those required to cause dopamine release ([3]; ganglia effects vs dopamine release) |
| --- | --- | --- | --- | --- | --- | --- | --- | --- | --- | --- | --- | --- | --- | --- | --- |
| c1cncc(C2CC3CCN2CC3)c1 (racemic) [Sample No. 1, (+/−)-2-(3-pyridyl)-1-azabicyclo[2.2.2]octane] | 40 | 8.70 | 7.23 | 110 | 5.96 | 85 | 1.26 | – | – | – | – | – | – | – | – |
| c1cncc([C@@H]2C[C@@H]3CCN2C3)c1 (relative stereo) [Sample No. 4, endo-2-(3-pyridyl)-1-azabicyclo[2.2.1]heptane] | 114 | – | – | 130 | – | 100 | 0.94 | 7.48 | 6.82 | – | – | – | – | – | – |
| CCOc1cncc(C2CC3CCN2CC3)c1.Cl.Cl (stereo not drawn) [Sample No. 7, 2-(5-ethoxy-3-pyridyl)-1-azabicyclo[2.2.2]octane dihydrochloride] | 40 | – | – | 137 | – | 86 | 1.82 | 8.30 | 5.00 | – | – | – | – | – | – |
| Brc1cncc(C2CC3CCN2CC3)c1 (racemic) [Sample No. 2, (+/−)-2-(5-bromo-3-pyridyl)-1-azabicyclo[2.2.2]octane] | 43 | – | – | 133 | – | 106 | 2.05 | 8.70 | 5.52 | 5.52 | – | – | – | – | – |
| CN1CCC[C@H]1c1cccnc1 [C-1, (S)-(−)-nicotine, reference compound] | – | – | – | – | – | – | – | – | – | – | 100 | 100 | – | – | – |
| c1cncc(C2C3CCN2CC3)c1 (stereo not drawn) [Sample No. 5, 7-(3-pyridyl)-1-azabicyclo[2.2.1]heptane] | 93 | – | – | 130 | – | 120 | 0.93 | 8.40 | – | – | – | – | 8.15 | – | – |
| CC(C)Oc1cncc(C2CC3CCN2CC3)c1.Cl.Cl (stereo not drawn) [Sample No. 8, 2-(5-isopropoxy-3-pyridyl)-1-azabicyclo[2.2.2]octane dihydrochloride] | – | – | – | – | – | 94 | 1.76 | – | – | – | – | – | – | – | – |
| c1cncc([C@H]2C[C@@H]3CCN2C3)c1 (relative stereo) [Sample No. 3, exo 2-(3-pyridyl)-1-azabicyclo[2.2.1]heptane] | 130 | – | – | 130 | – | 100 | 0.94 | 8.22 | 6.82 | – | – | – | – | – | – |
| Cl.Cl.Cl.Nc1cncc(C2CC3CCN2CC3)c1 (stereo not drawn) [Sample No. 6, 2-(5-amino-3-pyridyl)-1-azabicyclo[2.2.2]octane trihydrochloride] | 43 | 8.15 | – | 100 | 5.00 | 75 | 0.48 | – | – | – | – | – | 8.59 | many times | many times |
